Values quoted from earlier work in US9017727B2, “Amino acid composition with improved dispersibility” (N.V. Nutricia, priority 2009, dated 2015).

Details: in water at 20 degrees Celsius

Row | Solubility (at 20° C.) (g/100 ml) | Compound
1 | 4.8 | CSCC[C@H](N)C(=O)O [Methionine]
2 | 17 | CC(=O)N[C@@H](CS)C(=O)O [N-acetyl cysteine]
3 | 2.74 | N[C@@H](Cc1ccccc1)C(=O)O [Phenylalanine]
4 | 1.06 | N[C@@H](Cc1c[nH]c2ccccc12)C(=O)O [Tryptophan]
5 | 5.75 | CC(C)[C@H](N)C(=O)O [Valine]

Continued, compound first:

Row | Compound | Solubility (at 20° C.) (g/100 ml)
6 | N[C@@H](CS)C(=O)O [Cysteine] | 16
7 | N[C@@H](CSSC[C@H](N)C(=O)O)C(=O)O [Cystine] | 0.009
8 | NC(=O)CC[C@H](N)C(=O)O [Glutamine] | 3.73
9 | N[C@@H](Cc1c[nH]cn1)C(=O)O [Histidine] | 3.84
10 | CC[C@H](C)[C@H](N)C(=O)O [Isoleucine] | 4.02
11 | C[C@H](N)C(=O)O [L-Alanine] | 15.8
12 | CC(C)C[C@H](N)C(=O)O [Leucine] | 2.38
13 | Cysteine HCL-anhydrous | 102
